Assays:
[1] = test system: Male Beagle dogs; assay: Test Example 1: serum lipids (total cholesterol, LDL, triglyceride) after 11 days of oral dosing; type: in vivo; details: oral once daily, Pyridoxine hydrochloride 50 mg/Kg, relative value, pre-treatment average = 100, mean of 5 dogs
Procedure: Pravastatin sodium manufactured at Sankyo Co., Ltd. was used. Simvastatin and atorvastatin synthesized at Chemtech Labo., Inc. were used.
The administration period was 11 days.
Approximately 10 mL of blood was collected from the cephalic vein of each dog on -14 and -7 day (the 1st and the 2nd week prior to administration) as well as 4, 8, and 12 days after administration.
The collected blood was placed in a test tube and allowed to stand at room temperature for 30 min to 1 hour. Then the blood was centrifuged (approximately 1,600 g, for 10 min) and the resultant serum obtained was used for assays.
Total cholesterol content was assayed by enzymatic assay method, while HDL, LDL, and triglyceride were determined by homogeneous method, chemically modified method, and enzymatic techniques, respectively. Clinical Laboratory System (TBA-120FR, Toshiba Medical Systems Corporation) was used in all of these determinations.
Relative values of various levels of serum lipids in animals treated with each dose of pyridoxine hydrochloride, pravastatin sodium, simvastatin, or atorvastatin calcium alone as well as the medicinal compositions described above were calculated against each converted average value calculated from that determined 2 weeks and 1 week before the treatment into 100.

[2] = test system: Male Beagle dogs; assay: Test Example 2: blood homocysteine levels (HPLC) after 11 days of oral dosing; details: oral once daily, relative value, pre-treatment average = 100, mean of 5 dogs
Source text: The required amount of the test substance calculated based on the body weight of the test animals was weighed and put in gelatin capsules (TORPAC Inc., ½ oz). After filling up, the capsules were placed in a box divided up for every animal and stored under freezing until use.
The capsules filled up with the test substance were orally administered to the test animals once daily via an oral gavage between 9:00-12:30. The test animals were fasted for 2-3 hrs prior to each administration. The administration period was 11 days.
Approximately 10 mL of blood was collected from the cephalic vein of each dog on -14 and -7 day (the 1st and the 2nd week prior to administration) as well as 4, 8, and 12 days after administration. The animals were fasted for approximately 18 hrs before collection of the blood.
Blood homocysteine levels were determined by HPLC method used conventionally in current clinical examination.
Relative values of blood homocysteine levels in animals treated with each dose of atorvastatin calcium or pyridoxine hydrochloride alone as well as the medicinal compositions of atorvastatin calcium plus pyridoxine hydrochloride were calculated against each converted average value calculated from that determined 2 weeks and 1 week before the treatment into 100.
The values indicate average results calculated from 5 dogs per a group.

[3] = test system: patients with cardiovascular diseases; details: 6 successive weeks; patients with cardiovascular diseases (3 atorvastatin, 4 simvastatin); cited from earlier work
[4] = test system: patients; details: treated for one year; 20,705 patients; placebo control group 1.9% decrease; cited from earlier work
[5] = 4 Days after treatment, Atorvastatin calcium 2 mg/Kg
[6] = 8 Days after treatment, Atorvastatin calcium 2 mg/Kg
[7] = 12 Days after treatment, Atorvastatin calcium 2 mg/Kg
[8] = 4 Days after treatment, Atorvastatin calcium 2 mg/Kg and/or Pyridoxine hydrochloride 5 mg/Kg
[9] = 8 Days after treatment, Atorvastatin calcium 2 mg/Kg and/or Pyridoxine hydrochloride 5 mg/Kg
[10] = 12 Days after treatment, Atorvastatin calcium 2 mg/Kg and/or Pyridoxine hydrochloride 5 mg/Kg
[11] = 4 Days after treatment, Pravastatin sodium 2 mg/Kg
[12] = 8 Days after treatment, Pravastatin sodium 2 mg/Kg
[13] = 12 Days after treatment, Pravastatin sodium 2 mg/Kg
[14] = 4 Days after treatment, Simvastatin 1 mg/Kg
[15] = 8 Days after treatment, Simvastatin 1 mg/Kg
[16] = 12 Days after treatment, Simvastatin 1 mg/Kg

Row | Compound | Percent changes of blood LDL levels [1, 5] | Percent changes of blood triglyceride levels [1, 5] | Percent changes of blood LDL levels [1, 6] | Percent changes of blood triglyceride levels [1, 6] | Percent changes of blood LDL levels [1, 7] | Percent changes of blood triglyceride levels [1, 7] | Percent changes of blood homocysteine levels [2, 8] | Percent changes of blood homocysteine levels [2, 9] | Percent changes of blood homocysteine levels [2, 10] | Percent changes of blood LDL levels [1, 11] | Percent changes of blood LDL levels [1, 12] | Percent changes of blood LDL levels [1, 13] | Percent changes of blood LDL levels [1, 14] | Percent changes of blood total cholesterol levels [1, 14] | Percent changes of blood triglyceride levels [1, 14] | Percent changes of blood LDL levels [1, 15] | Percent changes of blood total cholesterol levels [1, 15] | Percent changes of blood triglyceride levels [1, 15] | Percent changes of blood LDL levels [1, 16] | Percent changes of blood total cholesterol levels [1, 16] | further results
1 | CC(C)c1c(C(=O)Nc2ccccc2)c(-c2ccccc2)c(-c2ccc(F)cc2)n1CC[C@H](O)C[C@@H](O)CC(=O)O [Atorvastatin calcium, (3R,5S)-7-[2-(4-fluorophenyl)-5-(1-methylethyl)-3-phenyl-4-phenylaminocarbonyl-1H-pyrrol-1-yl]-3,5-dihydroxyheptanoic acid] | 82.4% | 77.2% | 82.1% | 86.3% | 83.6% | 86.4% | 107.2% | 106.3% | 106.9% | – | – | – | – | – | – | – | – | – | – | – | –
2 | CC[C@H](C)C(=O)O[C@H]1C[C@H](O)C=C2C=C[C@H](C)[C@H](CC[C@@H](O)C[C@@H](O)CC(=O)O)[C@H]21 [Pravastatin sodium, (+)-(3R,5R)-3,5-dihydroxy-7-[(1S,2S,6S,8S,8aR)-6-hydroxy-2-methyl-8-[(S)-2-methylbutyryloxy]-1,2,6,7,8,8a-hexahydro-1-naphtyl]heptanoic acid] | – | – | – | – | – | – | – | – | – | 92.6% | 91.6% | 90.4% | – | – | – | – | – | – | – | – | –
3 | Cc1ncc(CO)c(CO)c1O.Cl [Pyridoxine hydrochloride] | 101.7% | 83.8% | 95.0% | 86.7% | 91.4% | 81.2% | 100.0% | 116.0% | 109.8% | 101.7% | 95.0% | 91.4% | 101.7% | 98.0% | 83.8% | 95.0% | 93.3% | 86.7% | 91.4% | 90.5% | Percent changes of blood triglyceride levels [1, 16]: 81.2%; Percent changes of blood homocysteine levels ([2]; 4 Days after treatment, Pyridoxine hydrochloride 50 mg/Kg alone or with Atorvastatin calcium 2 mg/Kg): 101.4%; Percent changes of blood homocysteine levels ([2]; 8 Days after treatment, Pyridoxine hydrochloride 50 mg/Kg alone or with Atorvastatin calcium 2 mg/Kg): 111.5%; Percent changes of blood homocysteine levels ([2]; 12 Days after treatment, Pyridoxine hydrochloride 50 mg/Kg alone or with Atorvastatin calcium 2 mg/Kg): 103.0%
4 | CCC(C)(C)C(=O)O[C@H]1C[C@@H](C)C=C2C=C[C@H](C)[C@H](CC[C@@H]3C[C@@H](O)CC(=O)O3)[C@H]21 [Simvastatin, (+)-(1S,3R,7S,8S,8aR)-1,2,3,7,8,8a-hexahydro-3,7-dimethyl-8-[2-[(2R,4R)-tetrahydro-4-hydroxy-6-oxo-2H-pyran-2-yl]ethyl]-1-naphthyl 2,2-dimethylbutyrate] | – | – | – | – | – | – | – | – | – | – | – | – | 83.9% | 94.8% | 66.4% | 90.4% | 94.1% | 85.3% | 81.3% | 92.4% | Percent changes of blood triglyceride levels [1, 16]: 82.0%; blood homocysteine levels (in words) [3]: decreased
5 | CC(C)c1c(C(=O)Nc2ccccc2)c(-c2ccccc2)c(-c2ccc(F)cc2)n1CC[C@H](O)C[C@@H](O)CC(=O)O [atorvastatin, (3R,5S)-7-[2-(4-fluorophenyl)-5-(1-methylethyl)-3-phenyl-4-phenylaminocarbonyl-1H-pyrrol-1-yl]-3,5-dihydroxyheptanoic acid] | – | – | – | – | – | – | – | – | – | – | – | – | – | – | – | – | – | – | – | – | blood homocysteine levels (in words) [3]: increased
6 | CC[C@H](C)C(=O)O[C@H]1C[C@@H](C)C=C2C=C[C@H](C)[C@H](CC[C@@H]3C[C@@H](O)CC(=O)O3)[C@H]21 [lovastatin, (+)-(1S,3R,7S,8S,8aR)-1,2,3,7,8,8a-hexahydro-3,7-dimethyl-8-[2-[(2R,4R)-tetrahydro-4-hydroxy-6-oxo-2H-pyran-2-yl]ethyl]-1-naphth yl(S)-2-methylbutyrate] | – | – | – | – | – | – | – | – | – | – | – | – | – | – | – | – | – | – | – | – | decrease of blood homocysteine levels on average [4]: 3.7%

— patent US20080070938A1, “Medicinal composition for mitigating blood lipid or lowering blood homocysteine” (SANKYO COMPANY, LIMITED, priority 2002, published 2008)
